{
  "source": "patent US20250152577A1",
  "about": "“Pharmaceutical Composition of Ethidium Bromide and Use in Treating Cancer” (RUIJIN HOSPITAL, SHANGHAI JIAOTONG UNIVERSITY SCHOOL OF …, priority 2022, published 2025)",
  "test_system": "AOM+DSS-induced colorectal tumor",
  "assay": "AOM+DSS-induced spontaneous colorectal cancer mouse model",
  "assay_type": "in vivo, mice",
  "details": "zalcitabine 33 mg/Kg alone, one month",
  "protocol": "The classical intraperitoneal injection of AOM and the spontaneous colorectal cancer formation by three rounds of DSS were utilized to construct a tumor mouse model. Mice were treated with ethidium bromide (500 mg/L dissolved in drinking water) one week after completion of the construction. […] Mice were sacrificed and their colorectum was taken for photographic observation and fixed staining.\nTo further verify the above results, we then expanded the sample size to about 10-16 mice per group and still used the above AOM+DSS protocol to induce spontaneous colorectal cancer formation in mice. […] Meanwhile, since it has been reported that zalcitabine (ddC) can effectively impair the function of mitochondria (mainly the replication of mtDNA, similar to ethidium bromide), we added the experimental group of zalcitabine (33 mg/Kg) as a control.\nIn addition, in order to investigate in what way ethidium bromide clears tumors in mice, we also tested cell proliferation (FIGS. 8A and B) and apoptosis (FIG. 8C-F) in tumor tissues and normal tissues surrounding the tumors in different treatment groups. Among them, cell proliferation was detected by immunohistochemistry of Ki67-positive cells, and apoptosis was detected by immunofluorescence staining of cleaved Caspase3.\nTo further verify whether ethidium bromide is still effective against already existing larger tumors (advanced colorectal cancer), we set aside a group of control mice (started administration 5 weeks after the end of induction, equivalent to the control group of mice described above) to administer them by gavage (20 mg/Kg per day).\nWe investigated the mechanism of ethidium bromide-induced apoptosis in tumor cells. First, tumor tissues treated with ethidium bromide (mice shown in FIGS. 7 and 8, treated for 4 weeks at 20 mg/Kg per day) were subjected to SDS-Loading buffer boiling lysis and tested for associated signaling pathways by Western blotting.",
  "data": [
    {"smiles": "Nc1ccn([C@H]2CC[C@@H](CO)O2)c(=O)n1", "note": "[zalcitabine, reference compound]", "values": [
      {"measurement": "effect on spontaneous colorectal tumors", "value": "had no effect"}
    ]}
  ]
}
